US6921665B2, “Selective antibody targeting of undifferentiated stem cells” (Roslin Institute (Edinburgh), priority 2001, dated 2005)

Legend:
[1] = tested on: hTERT expression; test: RT-PCR for hTERT expression after differentiation factors; type: cell-based, human; settings: after exposure of hES cells to the factor
Procedure: For radioactive relative quantification of individual gene products, QuantumRNA™ Alternate18S Internal Standard primers (Ambion, Austin Tex., USA) were employed according to the manufacturer's instructions. Briefly, the linear range of amplification of a particular primer pair was determined, then coamplified with the appropriate mixture of alternate18S primers:competimers to yield PCR products with coinciding linear ranges. Before addition of AmpliTaq™ (Roche) to PCR reactions, the enzyme was pre-incubated with the TaqStar™ antibody (ProMega) according to manufacturer's instructions. Radioactive PCR reactions were analyzed on 5% non-denaturing polyacrylamide gels, dried, and exposed to phosphoimage screens (Molecular Dynamics) for 1 hour. Screens were scanned with a Molecular Dynamics Storm 860 and band intensities were quantified using ImageQuant™ software. Results are expressed as the ratio of radioactivity incorporated into the hTERT or OCT-4 band, standardized to the radioactivity incorporated into the 18s band.
Primers and amplification conditions for particular markers are as follows. […]

[2] = tested on: normal BJ cells; test: Ganciclovir treatment in vitro of normal cells carrying hTERT promoter/tk constructs; type: cell-based
Procedure: (§1) The ability of the hTERT promoter to specifically drive the expression of the thymidine kinase (tk) gene in tumor cells was tested using a variety of constructs: One construct, designated pGRN266, contains an EcoRI-FseI PCR fragment with the tk gene cloned into the EcoRI-FseI sites of pGRN263. pGRN263, containing approximately 2.5 kb of hTERT promoter sequence, is similar to pGRN150, but contains a neomycin gene as selection marker. pGRN267 contains an EcoRI-FseI PCR fragment with the tk gene cloned into the EcoRI-FseI sites of pGRN264. pGRN264, containing approximately 210 bp of hTERT promoter sequence, is similar to pGRN176, but contains a neomycin gene as selection marker. pGRN268 contains an EcoRI-XbaI PCR fragment with the tk gene cloned into the EcoRI-XbaI (unmethylated) sites of pGRN265. pGRN265, containing approximately 90 bp of hTERT promoter sequence, is similar to pGRN175, but contains a neomycin gene as selection marker.
(§2) These hTERT promoter/tk constructs, pGRN266, pGRN267 and pGRN268, were re-introduced into mammalian cells and tk/+stable clones (and/or mass populations) were selected. […] Ganciclovir treatment had no effect on normal BJ cells.

[3] = tested on: tumor lines 143B, 293, HT1080, Bxpc-3', DAOY and NIH3T3; test: Ganciclovir treatment in vitro of tk/+ tumor lines carrying hTERT promoter/tk constructs; type: cell-based; settings: cells carrying pGRN266, pGRN267 or pGRN268
Procedure: as §1, §2

[4] = tested on: H9 cell line; test: Sensitivity of the H9 line to GCV after TPAC vector treatment; type: cell-based, human; settings: subsequent studies
Text: Thus, different hES cell lines respond to the TPAC vector.

[5] = tested on: hES lines H1 and H7; test: Comparison of different hES lines, total cell number after pGRN376 plus GCV; type: cell-based, human; settings: two hES lines
Procedure: Undifferentiated hES of lines designated Hi and H7 cells were plated into 24 well plates (1 confluent well of a 6 well plate split into 24 wells of a 24 well plate). […] Four h after addition of the viral vector, medium was exchanged for new mEF-CM; some wells received medium supplemented with 20 μM GCV. Cells exposed to GCV were re-fed with mEF-CM containing GCV daily for 3 days. On day 4 after the initiation of GCV treatment, wells were harvested and analyzed by flow cytometry to assess changes in total cell number.

[6] = tested on: Undifferentiated H1 cells; test: Total cell number of undifferentiated H1 hES cells by flow cytometry after TPAC vector and/or GCV; type: cell-based, human; settings: GCV alone, 30 μM
Procedure: (§3) Undifferentiated H1 cells were plated into 24 well plates (1 confluent well of a 6 well plate split into 24 wells of a 24 well plate). After 48 h, some wells were infected with the TPAC vector at an MOI of 30 or 100. Four h after addition of the viral vector, medium was exchanged for new mouse embryonic fibroblast conditioned medium (mEF-CM); some wells received medium supplemented with 30 μM ganciclovir (GCV). Cells exposed to GCV were re-fed with mEF-CM containing 30 μM GCV daily for 4 days. On days 2,3, and 4 after the initiation of GCV treatment, wells were harvested and analyzed by flow cytometry to assess changes in 1) total cell number and 2) cell viability (measured by PI exclusion).

[7] = tested on: Undifferentiated H1 cells; test: Cell viability (PI exclusion, cells in ES gate) of H1 hES cells after TPAC vector and/or GCV; type: cell-based, human; settings: GCV alone
Procedure: as §3

[8] = tested on: TPAC vector treated hES cells; test: Titration of GCV in TPAC vector treated hES cells; type: cell-based, human; settings: pGRN376 MOI 30; GCV 5-40 μM tested; day 2
Procedure: Undifferentiated Hi cells were plated into 24 well plates (1 confluent well of a 6 well plate split into 24 wells of a 24 well plate). After 48 h, some wells were infected with pGRN376 at an MOI of 30. Four h after addition of the viral vector, medium was exchanged for new mEF-CM; some wells received medium supplemented with 5, 10, 20, 30, or 40 μM ganciclovir (GCV). Cells exposed to GCV were re-fed with mEF-CM containing GCV daily for 2 days. On day 2 after the initiation of GCV treatment, wells were harvested and analyzed by flow cytometry to assess changes in total cell number, and cell viability (measured by PI exclusion).

[9] = tested on: hES cells; test: Neuron formation from hES cells with neurotrophin growth factors (β-tubulin positive cell count); type: cell-based, human; settings: 7 days of differentiation
Procedure: The effect of several members of the neurotrophin growth factor family was examined. hES cells were differentiated by harvesting with collagenase, dissociating, and reseeding onto poly-ornithine coated cover slips. The cells were plated into DMEM/F12+N2+10% FBS overnight. The following day, the serum was removed from the medium and replaced with 10 ng/mL human bFGF and the growth factor being tested. After 24 hours, bFGF was removed from the medium. These cultures were fed every other day. They were fixed after 7 days of differentiation and immunostained for analysis. The number of neurons was evaluated by counting cells positive for β-tubulin. Cultures maintained in the presence of 10 ng/mL brain derived neurotrophic factor (BDNF) formed approximately 3-fold more neurons than the control cultures. Cultures maintained in neurotrophin-3 (1 ng/mL) formed approximately 2-fold more neurons than control cultures.

`C[S+](C)[O-]` [dimethyl sulfoxide] was tested, and the “expression of hTERT” value [1] was “markedly decreased”.

With `Nc1nc(O)c2ncn(COC(CO)CO)c2n1` [GCV, ganciclovir] the effect of ganciclovir [2] was “no effect”, the “effect of ganciclovir on tk/+ cells” value [3] was “selective destruction of all tumor lines tested” and the “sensitivity to GCV after TPAC vector treatment” value [4] was “highly sensitive”. The “sensitivity to GCV after treatment with the TPAC vector” value [5] was “sensitive”, the “cells as percent of the control wells” value ([6]; day 2) was “approximately 55%” and the “cells as percent of the control wells” value ([6]; day 4) was 40%. For the same molecule, the “cells in ES gate” value ([7]; day 2 (control 85%)) was 75%, the “cells in ES gate” value ([7]; day 3 (control 82%)) was 68% and the “cells in ES gate” value ([7]; day 4 (control 65%)) was 50%. The “optimal GCV concentration” value [8] was ~20 µM.

B1: BDNF: brain derived neurotrophic factor, member of the neurotrophin growth factor family (protein, UniProt P23560 19-247, looked up)
Neurotrophic factor BDNF …: APMKEANIRGQGGLAYPGVRTHGTLESVNGPKAGSRGLTSLADTFEHVIEELLDEDQKVRPNEENNKDADLYTSRVMLSSQVPLEPPLLFLLEEYKNYLDAANMSMRVRRHSDPARRGELSVCDSISEWVTAADKKTAVDMSGGTVTVLEKVPVSKGQLKQYFYETKCNPMGYTKEGCRGIDKRHWNSQCRTTQSYVRALTMDSKKRIGWRFIRIDTSCVCTLTIKRGR
For B1, the “neurons formed relative to control cultures” value ([9]; 10 ng/mL) was “approximately 3 fold”.

B2: neurotrophin-3: member of the neurotrophin growth factor family (protein, UniProt P20783 139-257, looked up)
Neurotrophin-3: YAEHKSHRGEYSVCDSESLWVTDKSSAIDIRGHQVTVLGEIKTGNSPVKQYFYETRCKEARPVKNGCRGIDDKHWNSQCKTSQTYVRALTSENNKLVGWRWIRIDTSCVCALSRKIGRT
With B2 the “neurons formed relative to control cultures” value ([9]; 1 ng/mL) was “approximately 2 fold”.
